Measured values published in US12002595B2, “Separation of metal ions by liquid-liquid extraction” (priority 2016, dated 2024).
Where two headings read alike, the source gives them in different places.

Key:
[1] = Persistence of the metal complex versus acidity; format: binding; conditions: Sn^4+
[2] = UO2^2+; 25° C.; cited from earlier work
[3] = Pb^2+; 25° C.; cited from earlier work

For O=C(NCCCN(CCCCN(CCCNC(=O)c1cccc(=O)n1O)C(=O)c1cccc(=O)n1O)C(=O)c1cccc(=O)n1O)c1cccc(=O)n1O [3,4,3-LI(1,2-HOPO)], the “acidity range over which the ligand stays bound” value [1] is listed as “from pH 8 to 1 M HCl”, the “log βML” value [2] is listed as 18.0 ± 0.4 and the “log βML” value [3] is listed as 18.0 ± 0.2.
